Assay results reported in article PMC11643494, “Structure–Activity Relationship Studies in a Series of 2-Aryloxy-N-(pyrimidin-5-yl)acetamide Inhibitors of SLACK Potassium Channels” (Molecules, 2024).
“And” between values parts separate entries of the source, which are not always exact repeats. Identical values can stand only once.

Assays:
Format in all cases: cell-based
SLICK = target: T1, SLICK (Homo sapiens, UniProt Q6UVM3); assay: Tl+-flux assay in HEK-293 cells, SLICK; settings: 10 µM test compound
T1 construct: expressed in transfected cells; host or cells: HEK293
Description: (§1) Having executed our plan to prepare analogs across the identified regions of the chemotype (Figure 2), we identified two analogs for further profiling and evaluation. […] Desiring to add a second compound with some measure of structural differences, we also chose another submicromolar SLACK inhibitor 66 (VU0936154). Whereas 40 contains an ether linker and a halogenated phenyl group in the eastern region, […] contains an N-methyl linker and a phenyl group with a more polar cyano substituent. We first screened these analogs at 10 µM versus our in-house panel of ion channel targets using Tl^+-flux assays in HEK-293 cells expressing the human target of interest. […] Included in this set are Slo family members SLICK and two isoforms of Maxi-K, as well as several different K^+, Na^+, and Ca^2+ channels (Table 6). […] Of note was the excellent selectivity versus the broader panel of targets for both compounds, including versus the hERG channel.
(§2) Stably transfected monoclonal HEK293 cell lines expressing SLICK, Maxi-K α1/β3, Maxi-K α1/β4, CaV3.2, GIRK 1/2, KV2.1, KV7.2, NaV1.7, and TASK-1 were generated as previously described. […]
(§3) The Tl^+ flux assays were conducted as previously described, with modifications optimized for individual cell lines as described below. […] Cell plates were then loaded onto a Panoptic kinetic imaging plate reader (WaveFront Biosciences, Franklin, TN, USA). […]

Maxi-K α1/β3 = target: T2, Maxi-K α1/β3 (Homo sapiens, UniProt Q12791); assay: Tl+-flux assay in HEK-293 cells, Maxi-K α1/β3; settings: HEK293; 10 µM test compound; relative to control paxilline; read-out: Percent Inhibition ± SEM, Maxi-K α1/β3
T2 construct: expressed in transfected cells; host or cells: HEK293
Description: as §1, §2, §3

Maxi-K α1/β4 = target: T3, Maxi-K α1/β4 (Homo sapiens, UniProt Q12791); assay: Tl+-flux assay in HEK-293 cells, Maxi-K α1/β4; settings: HEK293; 10 µM test compound; relative to control paxilline; read-out: Percent Inhibition ± SEM, Maxi-K α1/β4
T3 construct: expressed in transfected cells; host or cells: HEK293
Description: as §1, §2, §3

GIRK 1/2 = target: T4, GIRK 1/2 (Homo sapiens, UniProt P48051+P48549); assay: Tl+-flux assay in HEK-293 cells, GIRK 1/2; settings: HEK293; 10 µM test compound; relative to control SCH23390; read-out: Percent Inhibition ± SEM, GIRK 1/2
T4 construct: expressed in transfected cells; host or cells: HEK293
Description: as §1, §2, §3

hERG = target: T5, hERG (Homo sapiens, UniProt Q12809); assay: Tl+-flux assay in HEK-293 cells, hERG; settings: HEK293 cells stably expressing hERG, pH 7.3, 10 µM test compound, relative to control bepridil, read-out: Percent Inhibition ± SEM, hERG
T5 construct: expressed in transfected cells; host or cells: HEK293
Description: as §1, §2, §3

NaV1.7 = target: T6, NaV1.7 (Homo sapiens, UniProt Q15858); assay: Tl+-flux assay in HEK-293 cells, NaV1.7; settings: HEK293; 10 µM test compound; relative to control TC-N 1752; read-out: Percent Inhibition ± SEM, NaV1.7
T6 construct: expressed in transfected cells; host or cells: HEK293
Description: as §1, §2, §3

T1 sequence (Q6UVM3 whole entry): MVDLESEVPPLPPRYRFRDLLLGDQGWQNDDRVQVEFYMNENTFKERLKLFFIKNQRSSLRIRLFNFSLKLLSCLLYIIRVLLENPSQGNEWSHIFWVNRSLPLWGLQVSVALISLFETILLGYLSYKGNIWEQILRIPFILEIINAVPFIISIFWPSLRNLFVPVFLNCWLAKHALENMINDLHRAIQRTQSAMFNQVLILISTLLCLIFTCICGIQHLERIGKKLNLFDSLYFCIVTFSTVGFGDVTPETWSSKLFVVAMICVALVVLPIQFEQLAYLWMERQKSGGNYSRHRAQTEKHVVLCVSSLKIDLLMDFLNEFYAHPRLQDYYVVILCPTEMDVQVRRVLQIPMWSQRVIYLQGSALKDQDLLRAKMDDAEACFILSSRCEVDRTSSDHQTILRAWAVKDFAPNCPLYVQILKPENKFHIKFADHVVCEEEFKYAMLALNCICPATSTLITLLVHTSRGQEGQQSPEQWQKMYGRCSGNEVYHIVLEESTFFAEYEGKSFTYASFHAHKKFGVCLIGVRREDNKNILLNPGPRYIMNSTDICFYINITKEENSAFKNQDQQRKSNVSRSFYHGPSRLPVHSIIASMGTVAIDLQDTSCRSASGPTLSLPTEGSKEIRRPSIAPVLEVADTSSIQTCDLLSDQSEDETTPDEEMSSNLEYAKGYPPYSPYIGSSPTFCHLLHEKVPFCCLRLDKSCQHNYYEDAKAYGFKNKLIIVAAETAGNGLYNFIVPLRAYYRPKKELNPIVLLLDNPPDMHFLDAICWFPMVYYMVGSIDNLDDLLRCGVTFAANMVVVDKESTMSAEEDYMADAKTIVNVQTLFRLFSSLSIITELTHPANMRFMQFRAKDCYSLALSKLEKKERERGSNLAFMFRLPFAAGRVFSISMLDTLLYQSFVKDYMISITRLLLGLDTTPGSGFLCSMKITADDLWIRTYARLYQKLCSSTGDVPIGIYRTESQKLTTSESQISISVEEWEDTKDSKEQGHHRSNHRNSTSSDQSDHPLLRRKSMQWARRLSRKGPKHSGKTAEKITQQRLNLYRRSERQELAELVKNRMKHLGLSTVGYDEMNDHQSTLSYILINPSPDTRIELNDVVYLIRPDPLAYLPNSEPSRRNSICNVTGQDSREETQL
T3 sequence (Q12791 whole entry): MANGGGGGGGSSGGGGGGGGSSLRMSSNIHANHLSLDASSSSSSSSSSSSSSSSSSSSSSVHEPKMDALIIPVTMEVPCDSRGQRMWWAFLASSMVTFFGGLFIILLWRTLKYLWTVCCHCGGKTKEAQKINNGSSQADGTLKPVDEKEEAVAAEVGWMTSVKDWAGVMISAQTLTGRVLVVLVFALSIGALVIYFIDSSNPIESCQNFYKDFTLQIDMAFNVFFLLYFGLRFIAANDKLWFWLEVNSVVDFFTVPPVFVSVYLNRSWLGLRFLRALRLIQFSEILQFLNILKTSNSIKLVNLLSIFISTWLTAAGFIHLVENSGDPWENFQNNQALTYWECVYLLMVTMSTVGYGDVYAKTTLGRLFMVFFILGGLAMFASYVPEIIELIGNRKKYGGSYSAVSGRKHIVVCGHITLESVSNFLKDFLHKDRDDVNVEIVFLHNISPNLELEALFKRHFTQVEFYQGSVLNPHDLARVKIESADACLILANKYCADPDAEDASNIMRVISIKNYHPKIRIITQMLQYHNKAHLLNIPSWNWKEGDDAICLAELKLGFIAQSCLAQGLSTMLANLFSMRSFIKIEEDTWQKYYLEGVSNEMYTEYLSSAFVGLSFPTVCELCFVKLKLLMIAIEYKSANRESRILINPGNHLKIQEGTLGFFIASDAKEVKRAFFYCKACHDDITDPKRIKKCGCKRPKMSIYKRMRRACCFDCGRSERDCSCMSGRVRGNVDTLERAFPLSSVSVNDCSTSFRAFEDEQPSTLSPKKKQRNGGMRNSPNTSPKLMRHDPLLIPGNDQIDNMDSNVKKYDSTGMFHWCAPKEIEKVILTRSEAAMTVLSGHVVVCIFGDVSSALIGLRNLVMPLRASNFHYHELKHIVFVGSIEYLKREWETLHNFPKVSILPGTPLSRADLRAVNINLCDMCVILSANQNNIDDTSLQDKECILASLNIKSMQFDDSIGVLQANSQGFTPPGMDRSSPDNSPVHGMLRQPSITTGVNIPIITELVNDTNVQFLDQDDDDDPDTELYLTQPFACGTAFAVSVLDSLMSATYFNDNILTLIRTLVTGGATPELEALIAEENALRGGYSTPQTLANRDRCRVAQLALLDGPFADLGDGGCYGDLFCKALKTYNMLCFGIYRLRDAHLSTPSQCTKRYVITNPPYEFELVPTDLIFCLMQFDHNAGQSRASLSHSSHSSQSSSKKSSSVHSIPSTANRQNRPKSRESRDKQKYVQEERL
T3 sequence (Q86W47 whole entry partner): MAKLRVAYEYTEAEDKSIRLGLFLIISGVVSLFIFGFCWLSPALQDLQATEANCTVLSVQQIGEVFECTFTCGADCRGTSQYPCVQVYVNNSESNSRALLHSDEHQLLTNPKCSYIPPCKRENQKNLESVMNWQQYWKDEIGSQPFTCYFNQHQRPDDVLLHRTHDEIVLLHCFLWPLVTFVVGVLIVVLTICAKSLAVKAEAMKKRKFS
T2 sequence (Q12791 whole entry): as the sequence (Q12791 whole entry) above
T2 sequence (Q9NPA1 whole entry partner): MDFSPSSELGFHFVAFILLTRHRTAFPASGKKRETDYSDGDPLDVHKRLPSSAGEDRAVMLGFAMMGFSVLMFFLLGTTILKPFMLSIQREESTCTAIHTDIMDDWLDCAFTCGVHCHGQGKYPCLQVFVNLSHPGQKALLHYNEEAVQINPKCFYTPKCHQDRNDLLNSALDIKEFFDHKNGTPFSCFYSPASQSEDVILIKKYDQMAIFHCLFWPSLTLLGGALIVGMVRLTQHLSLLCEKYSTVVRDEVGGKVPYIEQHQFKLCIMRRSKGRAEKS
T4 sequence (P48549 whole entry): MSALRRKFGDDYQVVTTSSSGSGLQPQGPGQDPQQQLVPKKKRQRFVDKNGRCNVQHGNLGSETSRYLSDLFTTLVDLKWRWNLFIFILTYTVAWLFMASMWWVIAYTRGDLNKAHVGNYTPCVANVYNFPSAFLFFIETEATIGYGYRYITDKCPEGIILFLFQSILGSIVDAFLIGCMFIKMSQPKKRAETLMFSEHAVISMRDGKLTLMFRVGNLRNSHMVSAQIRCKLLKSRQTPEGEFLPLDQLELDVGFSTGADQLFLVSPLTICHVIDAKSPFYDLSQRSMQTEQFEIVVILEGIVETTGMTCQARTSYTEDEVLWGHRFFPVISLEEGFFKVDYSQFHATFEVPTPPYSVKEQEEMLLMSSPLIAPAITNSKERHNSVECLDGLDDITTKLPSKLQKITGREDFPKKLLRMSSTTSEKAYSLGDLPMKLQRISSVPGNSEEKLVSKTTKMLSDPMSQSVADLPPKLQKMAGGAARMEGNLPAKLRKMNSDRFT
T4 sequence (P48051 whole entry): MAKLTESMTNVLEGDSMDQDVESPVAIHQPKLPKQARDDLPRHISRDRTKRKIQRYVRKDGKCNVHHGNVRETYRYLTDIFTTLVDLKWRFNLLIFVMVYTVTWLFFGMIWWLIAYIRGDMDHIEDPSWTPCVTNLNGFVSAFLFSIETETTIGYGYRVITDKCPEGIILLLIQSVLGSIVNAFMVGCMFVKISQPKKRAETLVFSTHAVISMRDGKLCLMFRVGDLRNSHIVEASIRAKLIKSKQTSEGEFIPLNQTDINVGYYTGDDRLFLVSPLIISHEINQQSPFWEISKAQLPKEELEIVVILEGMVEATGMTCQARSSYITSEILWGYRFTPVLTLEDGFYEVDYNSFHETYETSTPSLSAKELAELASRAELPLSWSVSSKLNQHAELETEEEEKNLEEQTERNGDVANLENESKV
T5 sequence (Q12809 whole entry): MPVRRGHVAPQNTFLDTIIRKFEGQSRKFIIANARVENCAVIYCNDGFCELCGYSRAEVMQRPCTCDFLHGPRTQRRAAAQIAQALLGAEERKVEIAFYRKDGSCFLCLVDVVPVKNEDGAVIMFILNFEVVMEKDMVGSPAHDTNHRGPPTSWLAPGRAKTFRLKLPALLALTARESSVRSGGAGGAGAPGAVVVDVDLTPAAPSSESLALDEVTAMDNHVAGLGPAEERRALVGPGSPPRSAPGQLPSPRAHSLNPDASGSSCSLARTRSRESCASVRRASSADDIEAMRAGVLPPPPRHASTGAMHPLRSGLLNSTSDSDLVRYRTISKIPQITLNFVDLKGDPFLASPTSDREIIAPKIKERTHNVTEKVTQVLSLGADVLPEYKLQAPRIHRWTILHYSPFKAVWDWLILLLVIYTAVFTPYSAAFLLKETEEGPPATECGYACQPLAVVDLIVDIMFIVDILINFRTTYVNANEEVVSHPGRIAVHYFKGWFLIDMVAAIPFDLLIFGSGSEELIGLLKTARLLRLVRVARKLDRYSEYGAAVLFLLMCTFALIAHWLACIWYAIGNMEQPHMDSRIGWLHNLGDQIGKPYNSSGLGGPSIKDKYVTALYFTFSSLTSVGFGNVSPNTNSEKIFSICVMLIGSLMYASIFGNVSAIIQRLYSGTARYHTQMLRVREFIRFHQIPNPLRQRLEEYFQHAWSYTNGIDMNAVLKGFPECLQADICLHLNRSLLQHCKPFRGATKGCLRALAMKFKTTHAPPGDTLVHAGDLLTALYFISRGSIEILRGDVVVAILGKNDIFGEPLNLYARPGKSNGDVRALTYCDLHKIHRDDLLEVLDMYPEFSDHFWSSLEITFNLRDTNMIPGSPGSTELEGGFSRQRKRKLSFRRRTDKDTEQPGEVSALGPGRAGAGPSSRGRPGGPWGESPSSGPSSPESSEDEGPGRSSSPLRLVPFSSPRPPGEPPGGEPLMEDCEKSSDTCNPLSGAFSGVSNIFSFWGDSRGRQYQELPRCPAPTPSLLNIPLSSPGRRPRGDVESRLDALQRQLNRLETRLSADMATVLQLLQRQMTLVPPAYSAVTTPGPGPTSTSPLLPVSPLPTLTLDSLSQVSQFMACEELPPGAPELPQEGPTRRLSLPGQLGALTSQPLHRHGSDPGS

SMILES	Percent activation ± SEM, SLICK (SLICK; activator, relative to control acetazolamide)	inhibition at 10 µM (Maxi-K α1/β3) [%]	inhibition at 10 µM (Maxi-K α1/β4) [%]	inhibition at 10 µM (GIRK 1/2) [%]	inhibition at 120 s, 10 µM (hERG) [%]	inhibition at 10 µM (NaV1.7) [%]	inhibition at 10 µM (SLICK; HEK293, relative to control SKF96365, read-out: Percent Inhibition ± SEM, SLICK) [%]
CC(C)(Oc1ccc(Cl)cc1)C(=O)Nc1cnc(Oc2c(F)cccc2F)nc1 [Analog 40]	36% and 36 ± 8.8 (activator) ^3%	27 ± 11	10 ± 7.4	6.8 ± 3.3	0.9 ± 2.9	7.5 ± 1.7	–
CN(c1ccc(C#N)cc1)c1ncc(NC(=O)C(C)(C)Oc2ccc(Cl)cc2)cn1 [Analog 66]	–	30 ± 2.6	22 ± 2.5	6.4 ± 1.5	13 ± 3.3	17 ± 1.8	16 ± 1.4
